# Where two headings read alike, the source gives them in different places.
# Key:
# JEG-Tox cells [1] = assay: Chromatin condensation (Hoechst 33342) as a hallmark of apoptosis; assay type: cell-based, human; details: 24 h
# Description: The UV fluorescent probe Hoechst 33342 enters living and apoptotic cells, intercalating into DNA. The fluorescent signal is proportional to chromatin condensation in apoptosis. The cells were incubated with Hoechst 33342 at 10 μg/mL for 30 minutes at room temperature. The fluorescence signal was read (λex=360 nm, λem=460 nm) using a cytofluorometer (Spark).
# [2] = Neutral red cell viability of JEG-3 cells with SLS or PFOA in 10% or 2.5% FBS; details: human
# Description: (§1) The choriocarcinoma-derived JEG-3 cell-line (ATCC® HTB-36™, Manassas, VA, USA), was grown as recommended by ATCC: Minimum Essential Medium Eagle's medium supplemented with 10% fetal bovine serum, 2 mM of glutamine, 50 IU/mL of penicillin and 50 IU/mL of streptomycin. Cells were detached using trypsin, counted, and then seeded at 80,000 cells/mL in 96-well microplates (200 μL by well) and Nunc® Lab-Tek® II Chamber Slide™ system for immunostaining.
# (§2) Cells were incubated with sodium lauryl sulfate or perfluorooctanoic acid diluted in culture medium supplemented with either 2.5% or 10% FBS. After 24 hours, cell viability was evaluated using the neutral red assay. Neutral Red solution at 0.4% in water was diluted in culture medium with a ratio of 1:79 to give a final concentration of 50 μg/mL. Neutral Red was distributed in the plates for a 3-hour incubation time at 37° C. The cells were then rinsed with PBS to remove any remaining unincorporated dye. The dye was then released from the cells using a lysis solution (1% acetic acid, 50% ethanol and 49% H2O) and the fluorescence was measured (λex=540 nm, λem=600 nm) using Spark microplate fluorometer (Tecan, Mannedorf, Switzerland).
# JEG-3 cells = assay: as above; details: for living cells: 2.5% FBS, 24 h
# Description: as §1, §2
# JEG-Tox cells [3] = assay: Reactive Oxygen Species (ROS) production, H2DCF-DA assay; assay type: cell-based, human; details: 48 h
# Description: Intracellular ROS were measured using 2′,7′-dichlorodihydro-fluorescein diacetate (H2DCF-DA, Life Technologies), which is hydrolyzed by cell esterases in 2′,7′-dichlorodihydrofluorescein and oxidized by ROS in highly fluorescent 2′,7′-dichlorofluorescein. A 10 μM solution of H2DCF-DA was distributed into wells. After a 20-min incubation period at 37° C., the fluorescence signal was read (λex=485 nm, λem=535 nm) using a Spark microplate reader.
# P2X7 receptor = target: T1, P2X7 receptor (Homo sapiens, UniProt Q99572); assay type: cell-based; details: for endocrine disruptor according to the definition of the European Union: JEG-3 cells in 2.5% serum, by measuring the activity of the P2X7 receptor
# T1 construct: P2X7 receptor is expressed by human placenta and JEG-Tox; endogenous in cells; host or cells: JEG-3 human trophoblast cell line (ATCC HTB-36) cultured in 2.5% FBS (JEG-Tox)
# T1 sequence (Q99572 1-595): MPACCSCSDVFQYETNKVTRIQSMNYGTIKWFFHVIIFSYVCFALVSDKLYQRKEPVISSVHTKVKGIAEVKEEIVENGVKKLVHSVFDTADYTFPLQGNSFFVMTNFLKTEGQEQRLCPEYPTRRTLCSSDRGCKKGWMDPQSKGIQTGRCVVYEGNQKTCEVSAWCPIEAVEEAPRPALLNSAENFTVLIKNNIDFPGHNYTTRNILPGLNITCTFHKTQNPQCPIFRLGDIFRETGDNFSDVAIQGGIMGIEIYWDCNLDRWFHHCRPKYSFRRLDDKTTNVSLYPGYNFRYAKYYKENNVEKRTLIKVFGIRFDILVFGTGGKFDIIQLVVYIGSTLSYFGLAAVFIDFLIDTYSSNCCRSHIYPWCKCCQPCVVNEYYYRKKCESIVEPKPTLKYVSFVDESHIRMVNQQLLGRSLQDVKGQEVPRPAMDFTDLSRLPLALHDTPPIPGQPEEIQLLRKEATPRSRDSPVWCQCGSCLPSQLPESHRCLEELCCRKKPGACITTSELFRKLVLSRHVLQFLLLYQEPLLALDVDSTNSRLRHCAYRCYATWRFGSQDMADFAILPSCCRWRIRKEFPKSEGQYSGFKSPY
# Description: (§3) P2X7 cell death receptor activation was evaluated using the YO-PRO-1® assay (Rat et al. J Biol Methods. 2017 Jan. 20; 4(1):e64). YO-PRO-1® probe only enters into cells after P2X7 receptor activation-induced pore opening, and binds to DNA, emitting fluorescence. A 1 mM YO-PRO-1 stock solution was diluted at 1/500 in PBS just before use and distributed into the wells of the microplate. After a 10-minute incubation time at room temperature, fluorescence signal was read (λex=491 nm, λem=509 nm) with a Spark cytofluorometer.
# as §3, with “al., 2017).” for “al. J Biol Methods. 2017 Jan. 20; 4(1):e64).”, “(λex=485” for “(λex=491”, “λem=531” for “λem=509”
# JEG-Tox cells [4] = assay: Neutral Red cell viability assay on JEG-Tox cells, 72 h; assay type: cell-based, human; details: 72 h
# Description: (§4) The JEG-3 human trophoblast cell line, derived from a human placental carcinoma, was obtained from the American Type Culture Collection (ATCC HTB-36). Cells were cultured in minimum Essential medium, supplemented with 10% fetal bovine serum (FBS), 1% L-glutamine, 0.5% penicillin and streptomycinin, in 75 cm2 polystyrene flasks. Cell cultures were maintained in a cell culture incubator (37° C., saturated humidity, 5% CO2). When the JEG-3 cells reached subconfluency, they were detached using trypsin-EDTA and counted. The cellular suspension was diluted and seeded either in 96-well microplates at a cellular density of 80,000 cells/mL or in 6-well microplates at 120,000 cells/mL, then kept at 37° C. for 24 h. The cells were incubated with EDCs according to example 1.
# (§5) Cell viability was evaluated using the Neutral Red assay. The Neutral Red solution at 0.4% (m/v in water) was diluted in cell culture medium to obtain a working concentration of 50 μg/mL. […] The cells were then rinsed with PBS and lysed with a solution of acetic acid-ethanol (ethanol 50.6%, water 48.4% and acetic acid 1%). After homogenization, the fluorescence signal was scanned (λexc=540 nm, λem=600 nm) with a Tecan Spark microplate reader (Mannedorf, Switzerland). The cell viability was calculated compared to the control cells (the fluorescence of the control cells as 100% viability).
# [5] = as above; assay type: cell-based, human; details: human, 100 μM, 72 h, read-out: cell viability
# Description: as §4, §5
# caspase-1 = assay: Caspase 1 activity, Caspase-Glo 1 Inflammasome Assay; assay type: cell-based, human; details: 72 h
# Description: Caspase 1 activity was evaluated using the Caspase-Glo® 1 1 Inflammasome Assay kit. The assay was performed according to the manufacturer's instructions. Luminescence was quantified with a Spark microplate reader.
# Caspase 1 activity was evaluated using the Caspase-Glo®1 Inflammasome Assay kit. The assay was performed according to the manufacturer's instructions. Luminescence was quantified with a Spark microplate reader.
# caspase-9 = assay: Caspase 9 activity, Caspase-Glo 9 Assay; assay type: cell-based, human; details: 72 h
# Description: Caspase 9 activity was evaluated using the Caspase-Glo® 9 Assay kit. The assay was performed according to the manufacturer's instructions. Luminescence was quantified with a Spark microplate reader.
smiles,measurement,setting,value
"O=C(O)C(F)(F)C(F)(F)C(F)(F)C(F)(F)C(F)(F)C(F)(F)C(F)(F)F [PFOA, perfluorooctanoic acid]",concentration at which chromatin condensation was initiated,JEG-Tox cells [1],20 µg/mL
same,"viability at 24 h, 120 μg/mL",[2],85%
same,living cells,JEG-3 cells; 80 μg/mL,68%
same,living cells,JEG-3 cells; 120 μg/mL,27%
same,concentration at which cytotoxicity was revealed,JEG-3 cells; diluted in 2.5% FBS,200 µM
same,concentration at which only a slight loss of cell viability was observed,JEG-3 cells; diluted in 10% FBS,300 µM
"CC(C)(c1ccc(O)cc1)c1ccc(O)cc1 [bisphenol A, Bisphenol A]",effect on ROS production,JEG-Tox cells [3],no effect
same,P2X7 receptor activation compared to control,"P2X7 receptor; 20 μM, 72 h",1.21 fold change
same,P2X7 receptor activation compared to control,"P2X7 receptor; 25 μM, 72 h",1.26 fold change
same,P2X7 receptor activation compared to control,"P2X7 receptor; 50 μM, 72 h",1.34 fold change
same,endocrine disruptor according to the definition of the European Union,P2X7 receptor,is an endocrine disruptor
same,P2X7 receptor activation (in words),"P2X7 receptor; JEG-Tox, 72 h",triggered P2X7 receptor activation
same,P2X7 activation (concentration),"P2X7 receptor; Table 4 summary, 72 h",5 to 20 µM
same,concentration up to which no loss of cell viability was observed,JEG-Tox cells [4],up to 20 μM
same,cytotoxicity (concentration),"JEG-Tox cells [4]; Table 4 summary, loss of viability >= 30% counted as cytotoxic",No
same,"viability at 72 h, 100 µM",[5]; JEG-Tox cells,18%
same,caspase-1 activity compared to control,caspase-1; 50 μM,1.57 fold change
same,effect on caspase-1 activity,caspase-1,activated caspase-1
same,Casp-1 activation (concentration),caspase-1; Table 4 summary,20 µM
same,caspase-1 activity compared to control,caspase-1; highest concentration tested,1.64 fold change
same,caspase-9 activity compared to control,caspase-9; 50 μM (highest concentration),1.28 fold change
"Oc1ccc(Cc2ccc(O)cc2)cc1 [bisphenol F, Bisphenol F]",ROS production compared to control,JEG-Tox cells [3]; 25 μM,2.5 fold change
same,ROS production compared to control,JEG-Tox cells [3]; 50 μM,2.5 fold change
same,P2X7 receptor activation compared to control,"P2X7 receptor; 25 μM, 72 h",1.24 fold change
same,P2X7 receptor activation compared to control,"P2X7 receptor; 50 μM, 72 h",1.46 fold change
same,endocrine disruptor according to the definition of the European Union,P2X7 receptor,corresponds also to an endocrine disruptor
same,concentration at which chromatin condensation was initiated,JEG-Tox cells [1],5 µg/mL
same,"viability at 72 h, 100 µM",[5],64%
same,caspase-1 activity compared to control,caspase-1; 25 μM,1.60 fold change
same,caspase-1 activity compared to control,caspase-1; 50 μM,2.61 fold change
same,caspase-9 activity compared to control,caspase-9; 25 μM,1.47 fold change
same,caspase-9 activity compared to control,caspase-9; 50 μM (highest concentration),1.67 fold change

# Reference: patent US20240118268A1, “BIOMARKERS ON CELLULAR ENDOCRINE MODELS FOR ENDOCRINE DISRUPTION ASSESSMENT” (priority 2020, published 2024)
